Experimental data as given in publication PMC3842914, “Meleagrin, a New FabI Inhibitor from Penicillium chryosogenum with at Least One Additional Mode of Action” (PLoS ONE, 2013).
Values after ≈ are worked out from the molar mass of the structure shown.

Assays:
[1] = system: S. pneumoniae KCTC 3932; assay: Inhibition of macromolecular biosynthesis (radiolabeled precursor incorporation) in S. pneumoniae; assay type: cell-based, Streptococcus pneumoniae; settings: drugs at 2 times the MIC
Protocol: (§1) To monitor the effects of compound 1 on lipid, DNA, RNA, protein, and cell wall biosynthesis, its effects on the incorporation of [1-^14C] acetate (50 mCi/mmol), [2-^14C] thymidine (59.8 mCi/mmol), [U-^14C] uridine (539 mCi/mmol), L-[U-^14C] leucine (306 mCi/mmol) or L-[U-^14C] isoleucine (329 mCi/mmol), and N-acetyl-D-[1-^14C] glucosamine (58.1 mCi/mmol) into S. aureus and S. pneumoniae were measured as described previously. S. aureus was exponentially grown to an A650 of 0.2 in Mueller–Hinton broth. S. pneumoniae was grown in tryptic soy broth supplemented with 5% sheep blood. […] An equal volume of DMSO solvent was added to the untreated control. After incubation with the radiolabeled precursors at 37°C for 1 h, followed by centrifugation, the cell pellets were washed twice with PBS buffer. After acetate incorporation, the total cellular lipids were extracted with chloroform-methanol-water. The incorporated radioactivity in the chloroform phase was measured by scintillation counting. For the other precursors, incorporation was terminated by adding 10% (w/v) TCA and cooling on ice for 20 min. The precipitated material was collected on Whatman GF/C glass microfiber filters, washed with TCA and ethanol, dried, and counted using a scintillation counter. The total counts incorporated at 1 h of incubation without inhibitors ranged from >7,000 for [U-^14C] uridine to <13,000 for [1-^14C] acetate. […] In all experiments, known antibacterial agents were included as positive controls.

[2] = system: S. aureus RN4220; assay: Inhibition of macromolecular biosynthesis (radiolabeled precursor incorporation) in S. aureus; assay type: cell-based, Staphylococcus aureus; settings: drugs at 2 times the MIC
Protocol: as §1

[3] = system: S. aureus RN4220 (pE194); assay: Overexpression assay, MIC for vector-containing S. aureus RN4220 (pE194); assay type: cell-based; settings: Staphylococcus aureus, read-out: MIC S. aureus (pE194)
Protocol: (§2) Whole-cell antimicrobial activity was determined by broth microdilution as described previously. The test strains except for S. pneumoniae were grown to mid-log phase in Mueller–Hinton broth and diluted 1,000-fold in the same medium. Cells (10^5/mL) were inoculated into Mueller–Hinton broth and dispensed at 0.2 mL/well into a 96-well microtiter plate. S. pneumoniae was grown in tryptic soy broth supplemented with 5% sheep blood. MICs were determined in triplicate by serial 2-fold dilutions of test compounds. […] Bacterial growth was determined by measuring the absorption at 650 nm by using a microtiter ELISA reader.
(§3) An overexpression assay using S. aureus RN4220, S. aureus RN4220 (pE194), and S. aureus RN4220 (pE194-fabI) was conducted to perform target validation of FabI inhibitors as described previously. Additionally, both fabI- and fabK-overexpressing E. coli were constructed to test a multitarget effect of the compounds. The wild-type fabI gene from the genomic DNA of E. coli W3110 was amplified by PCR by using the primers 5′-[…]-3′ and 5′-[…]-3′. The wild-type fabK gene from the genomic DNA of S. pneumoniae KCTC 5412 was amplified by PCR by using the primers 5′-[…]-3′ and 5′-[…] […]-3′. The resulting products were cloned into the pBAD-TOPO TA expression vector (Invitrogen, Carlsbad, CA, USA) to yield the pBAD-fabI and pBAD-fabK recombinant plasmids, which placed the expression of the genes fabI and fabK, respectively, under the control of the arabinose promoter. Recombinant pBAD-fabI and pBAD-fabK were then introduced into the pump-negative (tolC) E. coli EW1b via electroporation to generate E. coli EW1b (pBAD-fabI) and E. coli EW1b (pBAD-fabK), respectively.

[4] = system: S. aureus RN4220; assay: MIC by broth microdilution, S. aureus RN4220 (wild type); assay type: cell-based, Staphylococcus aureus; settings: Staphylococcus aureus; S. aureus RN4220 (wild type)
Protocol: as §2

[5] = biological target: T1, S. aureus FabI (Staphylococcus aureus, UniProt Q6GI75); assay: S. aureus FabI enzyme assay (NADPH use at 340 nm, t-o-NAC thioester substrate); assay type: biochemical; settings: S. aureus FabI; read-out: IC50 saFabI
T1 construct: made in house
T1 sequence (Q6GI75 1-256): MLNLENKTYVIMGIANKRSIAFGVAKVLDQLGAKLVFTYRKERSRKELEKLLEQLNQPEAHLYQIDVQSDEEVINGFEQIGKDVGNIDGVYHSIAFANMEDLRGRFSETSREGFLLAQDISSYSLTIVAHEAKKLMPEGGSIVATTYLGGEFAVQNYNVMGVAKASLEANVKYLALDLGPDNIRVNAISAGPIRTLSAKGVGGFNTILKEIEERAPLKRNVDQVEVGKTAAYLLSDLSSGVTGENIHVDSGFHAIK
Description: S. aureus FabI and E. coli FabI enzymes were cloned, overexpressed, and purified as described previously. The wild-type fabK gene was amplified by PCR from genomic DNA obtained from Streptococcus pneumoniae KCTC 5412 by using the primers 5′-[…]-3′ and 5′-[…]-3′, which contained NdeI and XhoI restriction sites, respectively. After the DNA sequence was confirmed, the gene was cloned into the pET22b vector (Novagen, Gibbstown, NJ, USA). The construct was transformed into E. coli BL21 (DE3) for expression following induction with isopropylthiogalactoside. The C-terminal His-tagged protein was purified as described previously. Assays were conducted in half-area, 96-well microtiter plates. The compounds were dissolved in DMSO and evaluated in 100-μL assay mixtures containing components specific for each enzyme (see below). Reduction of the trans-2-octenoyl N-acetylcysteamine (t-o-NAC thioester) substrate analog was measured spectrophotometrically following the utilization of NADH or NADPH at 340 nm at 30°C for the linear period of the assay. S. aureus FabI assays contained 50 mM sodium acetate (pH 6.5), 200 μM t-o-NAC thioester, 200 μM NADPH, and 150 nM S. aureus FabI.
NADH was used as a cofactor rather than NADPH for the E. coli FabI assay. Substrate concentrations used for the Lineweaver–Burk plot were 100, 200, 300, and 400 μM, whereas the concentrations of the cofactor were 100, 200, 400, and 600 μM. The rate of decrease in the amount of NADPH in each reaction was measured with a microtiter enzyme-linked immunosorbent assay (ELISA) reader by using the SOFTmax PRO software (Molecular Devices, Sunnyvale, CA, USA). The inhibitory activity was calculated according to the following formula: % of inhibition = 100× [1− (rate in the presence of compound/rate in the untreated control)]. IC50 values were calculated by fitting the data to a sigmoid equation. An equal volume of DMSO solvent was used for the untreated control. FabK assays contained 100 mM sodium acetate (pH 6.5), 2% glycerol, 200 mM NH4Cl, 50 µM t-o-NAC thioester, 200 µM NADH, and 150 nM S. pneumoniae FabK.

[6] = system: S. aureus RN4220 (pE194-fabI); assay: Overexpression assay, MIC for fabI-overexpressing S. aureus RN4220 (pE194-fabI); assay type: cell-based; settings: Staphylococcus aureus, read-out: MIC S. aureus (pE194-fabI)
Protocol: as §2, §3

[7] = biological target: T1, S. aureus FabI; assay: Fluorescence quenching assay (direct binding); settings: increasing amounts of compound; FabI fluorescence at 307 nm
Protocol: Fluorescence spectra were measured using a SHIMADZU fluorescence spectrophotometer (model RF-5310PC). […] Protein quenching was monitored at 25°C by using 5-nm excitation and 5-nm emission wavelength. The excitation wavelength was 280 nm, and the emission spectra were measured between 290 and 430 nm.

| SMILES | MIC [3] | MIC [4] | IC50 [5] | MIC [6] | other results |
| --- | --- | --- | --- | --- | --- |
| CN[C@H](CC(C)C)C(=O)N[C@H]1C(=O)N[C@@H](CC(N)=O)C(=O)N[C@H]2C(=O)N[C@H]3C(=O)N[C@H](C(=O)N[C@H](C(=O)O)c4cc(O)cc(O)c4-c4cc3ccc4O)[C@H](O)c3ccc(c(Cl)c3)Oc3cc2cc(c3O[C@@H]2O[C@H](CO)[C@@H](O)[C@H](O)[C@H]2O[C@H]2C[C@](C)(N)[C@H](O)[C@H](C)O2)Oc2ccc(cc2Cl)[C@H]1O [vancomycin, reference compound] |  |  |  |  | Inhibition of precursor incorporation, N-Acetyl-D-[1-14C] Glucosamine [1]: 88%; Inhibition of precursor incorporation, N-Acetyl-D-[1-14C] Glucosamine [2]: 79% |
| CO[C@H]1/C=C/O[C@@]2(C)Oc3c(C)c(O)c4c(O)c(c(/C=N/N5CCN(C)CC5)c(O)c4c3C2=O)NC(=O)/C(C)=C\C=C\[C@H](C)[C@H](O)[C@@H](C)[C@@H](O)[C@@H](C)[C@H](OC(C)=O)[C@@H]1C [rifampin, reference compound] |  |  |  |  | Inhibition of precursor incorporation, [U-14C] Uridine [1]: 92%; Inhibition of precursor incorporation, [U-14C] Uridine [2]: 69% |
| CCn1cc(C(=O)O)c(=O)c2cc(F)c(N3CCNCC3)cc21 [Norfloxacin, reference compound] | 1 mg/L (≈ 3.13 µM) | 1 mg/L (≈ 3.13 µM) | > 100 µM | 1 mg/L (≈ 3.13 µM) | Inhibition of precursor incorporation, [2-14C] Thymidine [1]: 83%; Inhibition of precursor incorporation, [2-14C] Thymidine [2]: 79% |
| NC[C@H]1O[C@H](O[C@H]2[C@H](O)[C@@H](O[C@H]3O[C@H](CO)[C@@H](O)[C@H](N)[C@H]3O)[C@H](N)C[C@@H]2N)[C@H](O)[C@@H](O)[C@@H]1O [kanamycin, reference compound] |  |  |  |  | Fluorescence quenching of S. aureus FabI [7]: did not |
| CC[C@H]1OC(=O)[C@H](C)[C@@H](O[C@H]2C[C@@](C)(OC)[C@@H](O)[C@H](C)O2)[C@H](C)[C@@H](O[C@@H]2O[C@H](C)C[C@H](N(C)C)[C@H]2O)[C@](C)(O)C[C@@H](C)C(=O)[C@H](C)[C@@H](O)[C@]1(C)O [Erythromycin, reference compound] | 64 mg/L (≈ 87.2 µM) | 0.5 mg/L (≈ 0.681 µM) | > 100 µM | 64 mg/L (≈ 87.2 µM) |  |
